Measured values from patent US20260069694A1, “IDENTIFICATION OF HIGHLY IMMUNOSUPRESIVE TREG POPULATION IN TUMOR MICROENVIRONMENTS” (THE TRUSTEES OF COLUMBIA UNIVERSITY IN THE CITY OF NEW YORK, priority 2023, published 2026).

How the values were obtained:
huPDAC tumors = assay: Humanized PDAC (huPDAC) mice treated with iRGD monotherapy; type: in vivo, mouse
From the text: In summary, this report conveys an important concept of tumor-specific Treg targeting, which can be achieved using an affinity probe that targets the αvβ5 integrin expressed on tumor-resident Tregs. […] The immune system of huPDAC mice is replaced by functional human immune cells, which react to antigens in a human-leukocyte antigen (HLA)-restricted manner, allowing us to study the response of human immunity against human PDAC in mice. […] Our finding that patient-derived PDAC tissue also harbors αvβ5 integrin- and NRP-1-positive Tregs further supports the argument that iRGD-mediated Treg targeting can be achieved in human PDAC patients. Clinical trials are now being organized to explore the therapeutic benefit of adding an ICB to iRGD-based chemotherapy in PDAC patients.

[1] = test system: Tregs that were expanded in the presence of PDAC cells; assay: FAM-iRGD binding to Tregs expanded with PDAC cells (flow cytometry); design: species or system mouse; conditions: flow cytometry MFI
Protocol: The isolated immune cells were subjected to flow cytometry for quality check and to analyze the cell populations of interest. […] The binding was analyzed by flow cytometry.
CD4+ T cells were magnetically isolated from the spleens of healthy C57B6129SF1/J mice using a mouse CD4+ T cell isolation kit (Miltenyi Biotec™). The CD4+ T cells were cultured for 3 days with or without KPC-derived PDAC cells in the presence of low dose anti-CD3/CD28 beads (×40 dilution; Miltenyi Biotec™), TGF-β1 (5 ng/ml; Bio-Techne Corporation™), and recombinant mouse interleukin-2 (mIL-2, 100 U/ml; Roche™), and subjected to flow cytometry as described elsewhere. In some cases, 1.0 mM iRGD was added to the culture in binding buffer supplemented with mIL-2 to study the effect on apoptosis. The cells were then stained with FITC-conjugated annexin V (BioLegend™) and 7-AAD (BioLegend™) for 15 minutes at room temperature to detect apoptotic cells by flow cytometry.
For the data presented in FIG. 16 through FIG. 19, CD4+ T cells isolated from the spleen of healthy C57B6129SF1/J hybrid mice were expanded for 3 days in vitro in the presence of KPC-derived PDAC cells. Flow cytometry was performed for subsequent analyses. […] The bar diagram summarizes the median fluorescence intensity (MFI) from 4 independent experiments. […] Apoptosis was quantitated by measuring annexin V and 7-AAD double positive cells by flow cytometry (n=3).

[2] = test system: Tregs and CD8+ T cells in PDAC tissue and spleen; assay: Orthotopic KPC-derived PDAC mice: flow cytometry and IF of T cells in tumor and spleen; type: in vivo, mouse
Protocol: The treatment studies in orthotopic syngeneic PDAC mice were performed as follows. Eight days after orthotopic implantation of 5.0×10^5 KPC-derived PDAC cells, the mice were randomized into respective treatment cohorts, such as intravenous (IV) phosphate buffered saline (PBS) alone, IV iRGD alone (300 μg/25 g), IV PBS+IP antimouse PD-L1 mAb (200 μg/mouse; clone MIH6; BioLegend™), IV iRGD+IP anti-mouse PD-L1 mAb, IV PBS+IV Gem (4 mg/kg; MilliporeSigma™), and IV iRGD+IV GEM+IP anti-mouse PD-L1 mAb. The treatment was given 3 times a week for 2 weeks starting 8 days after tumor cell implantation. The tumors and major organs were harvested at the end of the studies on day 22, weighed, and processed for flow cytometry, IF, and IHC. The treatment studies were terminated according to the guidelines by the IACUC at Columbia University. Treatment studies in transgenic KPC mice were performed as previously described.
Tumors from orthotopic PDAC mice were minced into 2-4 mm pieces and added with an enzyme mix from a tumor dissociation kit (Miltenyi Biotec™) in Roswell Park Memorial Institute medium 1640 (Cytiva™). The tissues were dissociated using a gentle MACS Dissociator (Miltenyi Biotec™) followed by a 40-minute incubation at 37° C. The samples were then centrifuged for 10 minutes at 3000×g in the presence of debris removal solution (Miltenyi Biotec™) and 10 minutes at 1000×g in cooled PBS. The supernatant was aspirated to remove the debris. Splenocytes were prepared by gently grinding the spleen and filtrating the resulting cell suspension through a 40 μm cell strainer. Red cells were lysed with an ACK lysing buffer (Thermo Fisher Scientific™
Immune cells isolated from the tumor or spleen, or cells cultured in vitro were tested for surface marker by staining with the following reagents for 20 minutes at 4° C.: Brilliant Violet 650™-conjugated anti-mouse CD3 Ab (clone 17A2; BioLegend), PerCP/Cyanine5.5-conjugated anti-mouse CD4 Ab (clone GK1.5; BioLegend™), PE/Cyanine7-conjugated antimouse CD8a Ab (clone 53-6.7; BioLegend™), PE-conjugated anti-mouse CD25 Ab (clone 7D4; Miltenyi Biotec™), PE/Cyanine7-conjugated anti-mouse CD25 Ab (clone PC61; BioLegend™), Brilliant Violet 421™ or 711™-conjugated anti-mouse CD304/NRP-1 Ab (clone 3E12; BioLegend™), Alexa Fluor® 647-conjugated anti-mouse integrin αvβ5 Ab (clone ALULA; BD Biosciences™), PE-conjugated anti-mouse CD198 (CCR8) Ab (clone SA214G2; BioLegend™), Zombie NIR™ (BioLegend™), or Aqua™ Fixable Viability Kit (BioLegend™). Intracellular staining of immune cells was performed using the following Abs and a Foxp3 staining buffer kit (eBioscience) according to the manufacturer's instructions: Brilliant Violet 421™-conjugated anti-Foxp3 Ab (FJK-16s; eBioscience™) Pacific Blue™-conjugated anti-mouse Foxp3 Ab (clone MF-14; BioLegend™), cleaved caspase-3 (Asp175) (5A1E) rabbit mAb (Cell Signaling™), and Alexa Flour™ 488-conjugated donkey anti-rabbit secondary Ab (Thermo Fisher Scientific™)
The Effect of iRGD Therapy on the Proportion of CD8+ T cells, Tregs, and Non-Treg CD4+ T Cells in the PDAC Tissue and the Spleen was tested. C57B6129SF1/J hybrid mice bearing orthotopic KPCderived PDAC tumors were treated with PBS or iRGD 3 times a week for 2 weeks. The tumors and spleen were collected 3, 7 and 14 days after the treatment was started. The proportion of CD8+ T cells, CD4+CD25+ T cells (Tregs), and CD4+CD25neg T cells (non-Tregs) in the tumors (FIG. 6A) and the spleen (FIG. 6B) were analyzed by flow cytometry (n=3 per arm).
In addition, C57B6129SF1/J hybrid mice bearing KPC-derived orthotopic PDAC tumors were intravenously treated with PBS or iRGD 3 times a week for 2 weeks. Tumors and spleen were collected at 3, 7 and 14 days after the treatment was started. […]

For CRGDKGPDC [iRGD], the “CD8/Treg ratio in the huPDAC tumors” value (huPDAC tumors) was “increased the CD8/Treg ratio in the tumors”, the “binding to αvβ5 integrin+ Tregs induced in the presence of PDAC cells” value [1] was “Binds” and the “proportion of Tregs in the PDAC tissue” value ([2]; CD4+CD25+ Tregs among CD4+ T cells, tumor, in 7 days, vs PBS) was “significantly reduced the proportion of Tregs”. For the same sequence, the “CD8/Treg ratio in the spleen” value ([2]; spleen of the PDAC mice) was “did not affect”, the “proportion of CD8+ T cells in the spleen” value ([2]; spleen of the PDAC mice) was “did not affect” and the “proportion of Tregs in the spleen” value ([2]; spleen of the PDAC mice) was “did not affect”. For the same sequence, the “proportion of CD8+ T cells in the PDAC tissue” value ([2]; tumor, flow cytometry, vs PBS) was “increased the proportion of CD8+ T cells” and the “CD8/Treg ratio in the PDAC tissue” value ([2]; tumor, in 7 days, vs PBS) was “significantly increased the CD8/Treg ratio”.
